Assay results from patent publication US4001218A, “Penicillins” (Bayer Aktiengesellschaft, priority 1972, dated 1977).

Legend:
Proteus morg. 932 = experiment: MIC, test tube series dilution test, Proteus morg. 932; format: cell-based; conditions: 24 hours, 37°C
Psdm. aerug. Walter = experiment: MIC, test tube series dilution test, Psdm. aerug. Walter; format: cell-based, Pseudomonas aeruginosa; conditions: Psdm. aerug. Walter; 24 hours, 37°C
E. coli A 261 = experiment: MIC, test tube series dilution test, E. coli A 261; format: cell-based; conditions: 24 hours, 37°C
Proteus vulg. 1017 = format: cell-based, Proteus vulgaris; conditions: Proteus 1017; 24 hours, 37°C
Klebsiella K 10 = experiment: MIC, test tube series dilution test, Klebsiella K 10; format: cell-based; conditions: 24 hours, 37°C
Staph. aureus 133 = format: cell-based, Staphylococcus aureus; conditions: Staph. aureus 133; 24 hours, 37°C
E. coli 183/58 = experiment: MIC, test tube series dilution test, E. coli 183/58; format: cell-based; conditions: 24 hours, 37°C
Psdm. aerug. F 41 [1] = experiment: MIC, test tube series dilution test, Psdm. aerug. F 41; format: cell-based, Pseudomonas aeruginosa; conditions: Psdm. aerug. F 41; 24 hours, 37°C
Psdm. aerug. F 41 [2] = experiment: animal experiment, Psdm. aerug. F 41 infection; conditions: s.c. 4 × 3000 Units per animal
E. coli 14 = format: cell-based; conditions: E. coli 14; 24 hours, 37°C
Staph. aureus 1756 = experiment: MIC, test tube series dilution test, Staph. aureus 1756; format: cell-based, Staphylococcus aureus; conditions: Staph. aureus 1756; 24 hours, 37°C
Enterococcus 9790 = experiment: MIC, test tube series dilution test, Enterococcus 9790; format: cell-based; conditions: 24 hours, 37°C
E. coli C 165 = experiment: MIC, test tube series dilution test, E. coli C 165; format: cell-based; conditions: 24 hours, 37°C
Klebsiella 63 [3] = experiment: MIC, test tube series dilution test, Klebsiella 63; format: cell-based; conditions: Klebsiella 63; 24 hours, 37°C
Klebsiella 63 [4] = experiment: animal experiment, Klebsiella 63 infection; conditions: s.c. 2 × 3000 Units per animal
Klebsiella 62 = experiment: animal experiment, Klebsiella 62 infection; conditions: 1st day after infection; s.c. 2 × 3000 Units per animal; experiment with Ex.1
[5] = 1st day after infection, experiment with Ex.29
[6] = 2nd day after infection, experiment with Ex.29
[7] = 3rd day after infection, experiment with Ex.29
[8] = 5th day after infection, experiment with Ex.29
[9] = 1st day after infection, experiment with Ex.7
[10] = 1st day after infection, experiment with Ex.22
[11] = 2nd day after infection, experiment with Ex.22
[12] = 1st day after infection, experiment with Ex.41

SMILES | MIC (Proteus morg. 932) | MIC (Psdm. aerug. Walter) | MIC (E. coli A 261) | MIC (Proteus vulg. 1017) | MIC (Klebsiella K 10) | MIC (Staph. aureus 133) | MIC (E. coli 183/58) | MIC (Psdm. aerug. F 41 [1]) | MIC (E. coli 14) | MIC (Staph. aureus 1756) | MIC (Enterococcus 9790) | MIC (E. coli C 165) | MIC (Klebsiella 63 [3]) | also measured
CC1(C)S[C@@H]2[C@H](NC(=O)[C@H](NC(=O)c3ccc(NC(=O)c4ccc(N)cc4)cc3)c3ccccc3)C(=O)N2[C@H]1C(=O)O [Example 29, sodium D(-)-α-[4-(4-aminobenzoylamino)-benzoylamino] -benzylpenicillin] | > 256 U/ml | 32 U/ml | > 256 U/ml | 256 U/ml | 128 U/ml | < 1 U/ml | 16 U/ml | ~ 32 U/ml | < 1 U/ml | 32 U/ml | 4 U/ml | 4 U/ml | 64 U/ml | Surviving animals (Psdm. aerug. F 41 [2]; [5]): 100%; Surviving animals (Psdm. aerug. F 41 [2]; [6]): 80%; Surviving animals (Psdm. aerug. F 41 [2]; [7]): 70%; Surviving animals (Psdm. aerug. F 41 [2]; [8]): 70%
COc1cc(OC)cc(C(=O)Nc2ccc(C(=O)N[C@@H](C(=O)N[C@@H]3C(=O)N4[C@@H]3SC(C)(C)[C@@H]4C(=O)O)c3ccccc3)cc2)c1 [Example 18] | 128 U/ml | 16 U/ml | > 256 U/ml | 64 U/ml | 64 U/ml | < 1 U/ml | 8 U/ml | 16 U/ml | 4 U/ml | 16 U/ml | 8 U/ml | 8 U/ml | 64 U/ml | –
CC1(C)S[C@@H]2[C@H](NC(=O)[C@H](NC(=O)c3ccc(NC(=O)C=Cc4ccccc4)cc3)c3ccccc3)C(=O)N2[C@H]1C(=O)O [Example 35] | 128 U/ml | 4 U/ml | > 256 U/ml | ~ 1 U/ml | 16 U/ml | < 1 U/ml | < 1 U/ml | 4 U/ml | < 1 U/ml | 8 U/ml | ~ 4 U/ml | 4 U/ml | 8 U/ml | –
CC1(C)S[C@@H]2[C@H](NC(=O)[C@H](N)c3ccccc3)C(=O)N2[C@H]1C(=O)O [Ampicillin, D(-)-α-aminobenzylpenicillin, reference compound] | 256 U/ml | > 256 U/ml | 8 U/ml | 256 U/ml | 128 U/ml | < 1 U/ml | 200 U/ml | > 256 U/ml | > 1 U/ml | 256 U/ml | 4 U/ml | 8 U/ml | 128 U/ml | –
CC1(C)S[C@@H]2[C@H](NC(=O)[C@H](NC(=O)c3ccc(NC(=O)C4CCCC4)cc3)c3ccccc3)C(=O)N2[C@H]1C(=O)O [Example 7, sodium D(-)-α-(4-cyclopentanecarbonylamino-benzoylamino)-benzylpenicillin] | 256 U/ml | 32 U/ml | > 256 U/ml | 32 U/ml | 32 U/ml | < 1 U/ml | 8 U/ml | 32 U/ml | < 1 U/ml | 64 U/ml | 8 U/ml | 8 U/ml | 32 U/ml | Surviving animals (Klebsiella 63 [4]; [9]): 100%; Surviving animals (Klebsiella 63 [4]; 2nd day after infection, experiment with Ex.7): 100%; Surviving animals (Klebsiella 63 [4]; 3rd day after infection, experiment with Ex.7): 20%
COc1cc(C(=O)Nc2ccc(C(=O)N[C@@H](C(=O)N[C@@H]3C(=O)N4[C@@H]3SC(C)(C)[C@@H]4C(=O)O)c3ccccc3)cc2)cc(OC)c1OC [Example 22, Sodium D(-)-α-(4-[3,4,5-trimethoxybenzoylaminobenzoylamino])-benzylpenicillin] | – | – | > 256 U/ml | ~ 16 U/ml | – | < 1 U/ml | – | – | – | – | – | – | – | Surviving animals (Psdm. aerug. F 41 [2]; [10]): 80%; Surviving animals (Psdm. aerug. F 41 [2]; [11]): 80%; Surviving animals (Psdm. aerug. F 41 [2]; 3rd day after infection, experiment with Ex.22): 80%
CC1(C)S[C@@H]2[C@H](NC(=O)[C@H](NC(=O)CNC(=O)c3ccc(NC(=O)C4CCCC4)cc3)c3ccccc3)C(=O)N2[C@H]1C(=O)O [Example 66] | > 256 U/ml | 128 U/ml | > 256 U/ml | 32 U/ml | 64 U/ml | < 1 U/ml | 64 U/ml | 64 U/ml | 8 U/ml | 32 U/ml | 32 U/ml | 32 U/ml | 32 U/ml | –
CC1(C)S[C@@H]2[C@H](NC(=O)[C@H](NC(=O)c3ccc(NC=O)cc3)c3ccccc3)C(=O)N2[C@H]1C(=O)O [Example 41, Sodium D(-)-α -(4-formylamino-benzoylamino)-benzylpenicillin] | – | 64 U/ml | > 256 U/ml | 64 U/ml | 128 U/ml | < 1 U/ml | 64 U/ml | 32 U/ml | 8 U/ml | 32 U/ml | 8 U/ml | 32 U/ml | 128 U/ml | Surviving animals (Klebsiella 63 [4]; [12]): 80%; Surviving animals (Klebsiella 63 [4]; 2nd day after infection, experiment with Ex.41): 50%; Surviving animals (Klebsiella 63 [4]; 3rd day after infection, experiment with Ex.41): 50%; Surviving animals (Klebsiella 63 [4]; 5th day after infection, experiment with Ex.41): 50%
COc1ccc(C(=O)Nc2ccc(C(=O)N[C@@H](C(=O)N[C@@H]3C(=O)N4[C@@H]3SC(C)(C)[C@@H]4C(=O)O)c3ccccc3)cc2)cc1 [Example 16] | 256 U/ml | 16 U/ml | > 256 U/ml | 64 U/ml | 32 U/ml | < 1 U/ml | 8 U/ml | 16 U/ml | ~ 1 U/ml | 64 U/ml | 8 U/ml | 8 U/ml | 16 U/ml | –
CC1(C)S[C@@H]2[C@H](NC(=O)[C@H](NC(=O)c3ccc(NC(=O)c4ccccc4)cc3)c3ccccc3)C(=O)N2[C@H]1C(=O)O [Example 25] | 16 U/ml | 32 U/ml | > 256 U/ml | 128 U/ml | 64 U/ml | < 1 U/ml | 8 U/ml | 16 U/ml | 8 U/ml | 64 U/ml | 8 U/ml | 16 U/ml | 32 U/ml | –
CC1(C)S[C@@H]2[C@H](NC(=O)C(C(=O)O)c3ccccc3)C(=O)N2[C@H]1C(=O)O (stereo partly shown) [Carbenicillin, reference compound] | – | – | – | – | – | – | – | – | – | – | – | – | – | Surviving animals (Klebsiella 63 [4]; [12]): 0%; Surviving animals (Klebsiella 63 [4]; [9]): 0%; Surviving animals (Psdm. aerug. F 41 [2]; [10]): 50%; Surviving animals (Psdm. aerug. F 41 [2]; [5]): 80%; Surviving animals (Psdm. aerug. F 41 [2]; [11]): 0%; Surviving animals (Psdm. aerug. F 41 [2]; [6]): 30%; Surviving animals (Psdm. aerug. F 41 [2]; [7]): 30%; Surviving animals (Psdm. aerug. F 41 [2]; [8]): 20%; Surviving animals (Klebsiella 62): 0%
